Laboratory results as given in PubChem BioAssay AID1259407 (Chemical Carcinogenesis Research Information System (CCRIS), 2018).
Activity calls are given as the source filed them. The rule behind the calls is not given here.

System: CCRIS mutagenicity, Ames/micronucleus/aberration tests
Assay: CCRIS mutagenicity studies
[1] = Test System: AMES SALMONELLA TYPHIMURIUM, Strain/Indicator: TA100, Metabolic Activation: NONE, Method: STANDARD PLATE
[2] = Test System: AMES SALMONELLA TYPHIMURIUM, Strain/Indicator: TA1535, Metabolic Activation: NONE, Method: STANDARD PLATE

COC(=O)c1ccc(C(=O)OC)cc1
mutagenic call (End Point: IN VITRO CHROMOSOMAL ABERRATIONS, Test System: CHO-LB CELLS, Metabolic Activation: NONE): inactive; negative
mutagenic call (End Point: IN VITRO CHROMOSOMAL ABERRATIONS, Test System: CHO-LB CELLS, Metabolic Activation: RAT, LIVER, S-9, AROCLOR 1254): inactive; negative
mutagenic call (Test System: AMES SALMONELLA TYPHIMURIUM, Strain/Indicator: TA98, Metabolic Activation: HAMSTER, LIVER, S-9, AROCLOR 1254 (10%), Method: PREINCUBATION): inactive; negative
mutagenic call (Test System: AMES SALMONELLA TYPHIMURIUM, Strain/Indicator: TA98, Metabolic Activation: NONE, Method: PREINCUBATION): inactive; negative
mutagenic call (Test System: AMES SALMONELLA TYPHIMURIUM, Strain/Indicator: TA98, Metabolic Activation: NONE, Method: STANDARD PLATE): inactive; negative
mutagenic call (Test System: AMES SALMONELLA TYPHIMURIUM, Strain/Indicator: TA98, Metabolic Activation: RAT LIVER S-9, AROCLOR 1254, Method: STANDARD PLATE): inactive; negative
mutagenic call (Test System: AMES SALMONELLA TYPHIMURIUM, Strain/Indicator: TA98, Metabolic Activation: RAT LIVER S-9, PHENOBARBITAL AND BETA-NAPHTHOFLAVONE, Method: PREINCUBATION): inactive; negative
mutagenic call (Test System: AMES SALMONELLA TYPHIMURIUM, Strain/Indicator: TA98, Metabolic Activation: RAT, LIVER, S-9, AROCLOR 1254 (10%), Method: PREINCUBATION): inactive; negative
mutagenic call (Test System: AMES SALMONELLA TYPHIMURIUM, Strain/Indicator: TA98, Metabolic Activation: RAT, LIVER, S-9, AROCLOR 1254, Method: STANDARD PLATE): inactive; negative
mutagenic call (Test System: AMES SALMONELLA TYPHIMURIUM, Strain/Indicator: TA98, Metabolic Activation: S-9, Method: STANDARD PLATE): inactive; negative
mutagenic call (Test System: AMES SALMONELLA TYPHIMURIUM, Strain/Indicator: TA100, Metabolic Activation: HAMSTER, LIVER, S-9, AROCLOR 1254 (10%), Method: PREINCUBATION): inactive; negative
mutagenic call (Test System: AMES SALMONELLA TYPHIMURIUM, Strain/Indicator: TA100, Metabolic Activation: NONE, Method: PREINCUBATION): inactive; negative
mutagenic call [1]: inactive; negative
mutagenic call (Test System: AMES SALMONELLA TYPHIMURIUM, Strain/Indicator: TA100, Metabolic Activation: RAT LIVER S-9, AROCLOR 1254, Method: STANDARD PLATE): inactive; negative
mutagenic call (Test System: AMES SALMONELLA TYPHIMURIUM, Strain/Indicator: TA100, Metabolic Activation: RAT LIVER S-9, PHENOBARBITAL AND BETA-NAPHTHOFLAVONE, Method: PREINCUBATION): inactive; negative
mutagenic call (Test System: AMES SALMONELLA TYPHIMURIUM, Strain/Indicator: TA100, Metabolic Activation: RAT, LIVER, S-9, AROCLOR 1254 (10%), Method: PREINCUBATION): inactive; negative
mutagenic call (Test System: AMES SALMONELLA TYPHIMURIUM, Strain/Indicator: TA100, Metabolic Activation: RAT, LIVER, S-9, AROCLOR 1254, Method: STANDARD PLATE): inactive; negative
mutagenic call (Test System: AMES SALMONELLA TYPHIMURIUM, Strain/Indicator: TA100, Metabolic Activation: S-9, Method: STANDARD PLATE): inactive; negative
mutagenic call (Test System: AMES SALMONELLA TYPHIMURIUM, Strain/Indicator: TA102, Metabolic Activation: NONE, Method: STANDARD PLATE): inactive; negative
mutagenic call (Test System: AMES SALMONELLA TYPHIMURIUM, Strain/Indicator: TA102, Metabolic Activation: S-9, Method: STANDARD PLATE): inactive; negative
mutagenic call (Test System: AMES SALMONELLA TYPHIMURIUM, Strain/Indicator: TA1535, Metabolic Activation: HAMSTER, LIVER, S-9, AROCLOR 1254 (10%), Method: PREINCUBATION): inactive; negative
mutagenic call (Test System: AMES SALMONELLA TYPHIMURIUM, Strain/Indicator: TA1535, Metabolic Activation: NONE, Method: PREINCUBATION): inactive; negative
mutagenic call [2]: inactive; negative
mutagenic call (Test System: AMES SALMONELLA TYPHIMURIUM, Strain/Indicator: TA1535, Metabolic Activation: RAT LIVER S-9, AROCLOR 1254, Method: STANDARD PLATE): inactive; negative
mutagenic call (Test System: AMES SALMONELLA TYPHIMURIUM, Strain/Indicator: TA1535, Metabolic Activation: RAT LIVER S-9, PHENOBARBITAL AND BETA-NAPHTHOFLAVONE, Method: PREINCUBATION): inactive; negative
mutagenic call (Test System: AMES SALMONELLA TYPHIMURIUM, Strain/Indicator: TA1535, Metabolic Activation: RAT, LIVER, S-9, AROCLOR 1254 (10%), Method: PREINCUBATION): inactive; negative
mutagenic call (Test System: AMES SALMONELLA TYPHIMURIUM, Strain/Indicator: TA1535, Metabolic Activation: RAT, LIVER, S-9, AROCLOR 1254, Method: STANDARD PLATE): inactive; negative
mutagenic call (Test System: AMES SALMONELLA TYPHIMURIUM, Strain/Indicator: TA1535, Metabolic Activation: S-9, Method: STANDARD PLATE): inactive; negative
mutagenic call (Test System: AMES SALMONELLA TYPHIMURIUM, Strain/Indicator: TA1537, Metabolic Activation: HAMSTER, LIVER, S-9, AROCLOR 1254 (10%), Method: PREINCUBATION): inactive; negative
mutagenic call (Test System: AMES SALMONELLA TYPHIMURIUM, Strain/Indicator: TA1537, Metabolic Activation: NONE, Method: PREINCUBATION): inactive; negative
mutagenic call (Test System: AMES SALMONELLA TYPHIMURIUM, Strain/Indicator: TA1537, Metabolic Activation: NONE, Method: STANDARD PLATE): inactive; negative
mutagenic call (Test System: AMES SALMONELLA TYPHIMURIUM, Strain/Indicator: TA1537, Metabolic Activation: RAT LIVER S-9, AROCLOR 1254, Method: STANDARD PLATE): inactive; negative
mutagenic call (Test System: AMES SALMONELLA TYPHIMURIUM, Strain/Indicator: TA1537, Metabolic Activation: RAT LIVER S-9, PHENOBARBITAL AND BETA-NAPHTHOFLAVONE, Method: PREINCUBATION): inactive; negative
mutagenic call (Test System: AMES SALMONELLA TYPHIMURIUM, Strain/Indicator: TA1537, Metabolic Activation: RAT, LIVER, S-9, AROCLOR 1254 (10%), Method: PREINCUBATION): inactive; negative
mutagenic call (Test System: AMES SALMONELLA TYPHIMURIUM, Strain/Indicator: TA1537, Metabolic Activation: RAT, LIVER, S-9, AROCLOR 1254, Method: STANDARD PLATE): inactive; negative
mutagenic call (Test System: AMES SALMONELLA TYPHIMURIUM, Strain/Indicator: TA1537, Metabolic Activation: S-9, Method: STANDARD PLATE): inactive; negative
mutagenic call (Test System: AMES SALMONELLA TYPHIMURIUM, Strain/Indicator: TA1538, Metabolic Activation: NONE, Method: PREINCUBATION): inactive; negative
mutagenic call (Test System: AMES SALMONELLA TYPHIMURIUM, Strain/Indicator: TA1538, Metabolic Activation: NONE, Method: STANDARD PLATE): inactive; negative
mutagenic call (Test System: AMES SALMONELLA TYPHIMURIUM, Strain/Indicator: TA1538, Metabolic Activation: RAT LIVER S-9, AROCLOR 1254, Method: STANDARD PLATE): inactive; negative
mutagenic call (Test System: AMES SALMONELLA TYPHIMURIUM, Strain/Indicator: TA1538, Metabolic Activation: RAT LIVER S-9, PHENOBARBITAL AND BETA-NAPHTHOFLAVONE, Method: PREINCUBATION): inactive; negative
mutagenic call (Test System: AMES SALMONELLA TYPHIMURIUM, Strain/Indicator: TA1538, Metabolic Activation: RAT, LIVER, S-9, AROCLOR 1254, Method: STANDARD PLATE): inactive; negative
mutagenic call (Test System: AMES SALMONELLA TYPHIMURIUM, Strain/Indicator: TA1538, Metabolic Activation: S-9, Method: STANDARD PLATE): inactive; negative
mutagenic call (Test System: E.COLI, Strain/Indicator: WP2UVRA, Metabolic Activation: NONE, Method: PREINCUBATION): inactive; negative
mutagenic call (Test System: E.COLI, Strain/Indicator: WP2UVRA, Metabolic Activation: RAT LIVER S-9, PHENOBARBITAL AND BETA-NAPHTHOFLAVONE, Method: PREINCUBATION): inactive; negative
mutagenic call (Test System: UDS HUMAN HELA CELLS, Strain/Indicator: THYMIDINE INCORPORATION, Metabolic Activation: NONE, Method: LIQUID SCINTILLATION COUNTING): inactive; negative

[C-]#[O+].[C-]#[O+].[Ni].c1ccc([PH+](c2ccccc2)c2ccccc2)cc1.c1ccc([PH+](c2ccccc2)c2ccccc2)cc1
mutagenic call (Test System: Ames Salmonella typhimurium, Strain/Indicator: TA100, Metabolic Activation: None, Method: Preincubation): inactive; negative
mutagenic call (Test System: Ames Salmonella typhimurium, Strain/Indicator: TA100, Metabolic Activation: Rat, Liver, S-9, Phenobarbital and 5,6-benzoflavone, Method: Preincubation): inactive; negative
mutagenic call (Test System: Ames Salmonella typhimurium, Strain/Indicator: TA102, Metabolic Activation: None, Method: Preincubation): inactive; negative
mutagenic call (Test System: Ames Salmonella typhimurium, Strain/Indicator: TA102, Metabolic Activation: Rat, Liver, S-9, Phenobarbital and 5,6-benzoflavone, Method: Preincubation): inactive; negative

C=CCCCCC1CO1 (stereo not given)
mutagenic call [1]: inactive; negative
mutagenic call [2]: active; positive

O=[Se](=O)(O)O
mutagenic call [2]: active; positive
mutagenic call (Test System: AMES SALMONELLA TYPHIMURIUM, Strain/Indicator: TA1535, Metabolic Activation: NONE, Method: STANDARD PLATE (MEDIUM WITH TRIMETAPHOSPHATE IONS)): active; positive
mutagenic call (Test System: UDS HUMAN FIBROBLASTS, Strain/Indicator: THY INCORP (NON-S-PHASE), Metabolic Activation: MOUSE, LIVER, S-9, Method: AUTORADIOGRAPHY): active; positive
mutagenic call (Test System: UDS HUMAN FIBROBLASTS, Strain/Indicator: THY INCORP (NON-S-PHASE), Metabolic Activation: NONE, Method: AUTORADIOGRAPHY): active; positive
